From ChEMBL document CHEMBL5365468, “Discovery of a novel series of medium-sized cyclic enteropeptidase inhibitors” (Bioorg Med Chem, 2023)

Tests used:
Enteropeptidase [1] = molecular target: T1, Enteropeptidase (Homo sapiens, UniProt P98073); assay: Inhibition of human recombinant enteropeptidase using 5FAM-Abu-Gly-Asp-Asp-Asp-Lys-Ile-Val-Gly-Gly-Lys(CPQ2)-Lys-Lys-NH2 as substrate assessed as dissociation half life preincubated with compound for 2 hrs followed by substrate addition and measured every 2 mins by fluorescence based analysis
Enteropeptidase [2] = molecular target: T1, Enteropeptidase; assay: Inhibition of human recombinant enteropeptidase using 5FAM-Abu-Gly-Asp-Asp-Asp-Lys-Ile-Val-Gly-Gly-Lys(CPQ2)-Lys-Lys-NH2 as substrate incubated for 6 mins by fluorescence plate reader analysis
Enteropeptidase [3] = molecular target: T1, Enteropeptidase; assay: Inhibition of human recombinant enteropeptidase using 5FAM-Abu-Gly-Asp-Asp-Asp-Lys-Ile-Val-Gly-Gly-Lys(CPQ2)-Lys-Lys-NH2 as substrate incubated for 120 mins by fluorescence plate reader analysis
[4] = Oral bioavailability in mouse assessed as ratio of dose normalized oral AUC to intravenous AUC at 10 mg/kg by LC-MS/MS analysis; format: ADME, organism-based; conditions: in vivo
[5] = Oral bioavailability in rat assessed as ratio of dose normalized oral AUC to intravenous AUC at 10 mg/kg by LC-MS/MS analysis; format: ADME, organism-based; conditions: in vivo
[6] = Inhibition of rat recombinant enteropeptidase catalytic domain (818 to 1057 residues) using 5FAM-Abu-Gly-Asp-Asp-Asp-Lys-Ile-Val-Gly-Gly-Lys(CPQ2)-Lys-Lys-NH2 as substrate incubated for 120 mins by fluorescence plate reader analysis
[7] = In vivo inhibition of enteropeptidase in D12079B diet-induced obese C57BL/6J mouse model assessed as fold increase in fecal protein output at 10 mg/kg, po measured overnight relative to N-({4-[(4-carbamimidamidobenzoyl)oxy]phenyl}acetyl)-L-aspartic acid hydrochloride; format: functional
[8] = Drug absorption in rat intestine assessed as fraction of drug absorbed into portal vein at 10 mg/kg, po by LC-MS/MS analysis; format: ADME, organism-based; conditions: in vivo
[9] = Drug metabolism in Sprague-Dawley rat assessed as open-ring type hydrolyzed metabolite formation in plasma at 100 mg/kg, po by LC-MS/MS analysis; format: ADME, organism-based; conditions: in vivo
[10] = Drug absorption in mouse intestine assessed as fraction of drug absorbed into portal vein at 10 mg/kg, po by LC-MS/MS analysis; format: ADME, organism-based; conditions: in vivo
[11] = Drug absorption in monkey intestine assessed as fraction of drug absorbed into portal vein at 1 mg/kg, po by LC-MS/MS analysis; format: ADME, organism-based, Macaca mulatta; conditions: rhesus monkey, in vivo
[12] = Oral bioavailability in dog assessed as ratio of dose normalized oral AUC to intravenous AUC at 1 mg/kg by LC-MS/MS analysis; format: ADME, organism-based, Canis lupus familiaris; conditions: in vivo
[13] = Oral bioavailability in monkey assessed as ratio of dose normalized oral AUC to intravenous AUC at 1 mg/kg by LC-MS/MS analysis; format: ADME, organism-based, Macaca mulatta; conditions: rhesus monkey, in vivo
[14] = Drug absorption in dog intestine assessed as fraction of drug absorbed into portal vein at 1 mg/kg, po by LC-MS/MS analysis; format: ADME, organism-based, Canis lupus familiaris; conditions: in vivo
[15] = Stability of the compound at pH 6.8 assessed as drug decomposition at 10 ug/ml incubated for 24 hrs by HPLC analysis; format: physicochemical; conditions: buffer, at 10 µg/mL, read-out: Drug degradation
[16] = Stability of the compound at pH 1.2 assessed as drug decomposition at 10 ug/ml incubated for 24 hrs by HPLC analysis; format: physicochemical; conditions: buffer, at 10 µg/mL, read-out: Drug degradation

T1 sequence (P98073 2-784 limits assumed): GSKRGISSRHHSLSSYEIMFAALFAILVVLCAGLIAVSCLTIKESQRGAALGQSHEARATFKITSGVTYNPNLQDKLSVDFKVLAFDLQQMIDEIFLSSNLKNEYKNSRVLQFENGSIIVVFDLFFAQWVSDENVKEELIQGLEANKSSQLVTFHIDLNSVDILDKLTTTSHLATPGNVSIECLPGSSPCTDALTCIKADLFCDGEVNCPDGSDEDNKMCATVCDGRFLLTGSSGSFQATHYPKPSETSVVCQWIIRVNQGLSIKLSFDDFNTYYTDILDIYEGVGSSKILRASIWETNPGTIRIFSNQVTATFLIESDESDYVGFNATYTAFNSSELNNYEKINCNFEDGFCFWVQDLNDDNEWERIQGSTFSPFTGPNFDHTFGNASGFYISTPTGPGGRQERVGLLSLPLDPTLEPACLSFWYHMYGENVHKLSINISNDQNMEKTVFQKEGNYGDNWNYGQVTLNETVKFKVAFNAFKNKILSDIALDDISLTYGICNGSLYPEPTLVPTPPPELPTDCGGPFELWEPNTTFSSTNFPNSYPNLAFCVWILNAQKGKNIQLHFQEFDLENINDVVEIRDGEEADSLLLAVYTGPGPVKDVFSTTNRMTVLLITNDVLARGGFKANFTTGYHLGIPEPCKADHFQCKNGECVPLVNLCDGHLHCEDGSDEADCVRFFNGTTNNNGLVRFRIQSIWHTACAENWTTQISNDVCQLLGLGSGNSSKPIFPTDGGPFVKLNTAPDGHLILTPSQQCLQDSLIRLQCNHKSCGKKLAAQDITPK
T1 sequence (P98073 785-1019 limits assumed): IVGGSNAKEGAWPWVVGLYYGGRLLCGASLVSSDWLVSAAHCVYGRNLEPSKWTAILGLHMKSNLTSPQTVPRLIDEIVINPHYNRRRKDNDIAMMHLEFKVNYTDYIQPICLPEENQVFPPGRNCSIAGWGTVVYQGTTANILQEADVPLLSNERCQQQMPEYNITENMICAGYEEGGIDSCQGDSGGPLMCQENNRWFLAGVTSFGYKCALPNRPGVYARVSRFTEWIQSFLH

Structure (SMILES)	T1/2 (Enteropeptidase [1])	IC50 (Enteropeptidase [2])	IC50 (Enteropeptidase [3])	fold change (FC) [7]	also measured
N=C(N)Nc1ccc2c(c1)CCCCOc1c(cccc1C(=O)N[C@@H](CC(=O)O)C(=O)O)OC2=O	> 2 h	0.026 µM	0.0017 µM		
N=C(N)Nc1ccc2c(c1)CCCOc1c(cccc1C(=O)N[C@@H](CC(=O)O)C(=O)O)OC2=O	> 2 h	0.0094 µM	0.00041 µM	1.72	bioavailability [4]: 1.1%; bioavailability [5]: 1%; IC50 [6]: 0.00062 µM; FaFg [8]: 1.2%; Drug metabolism [9]: Metabolite_Detected; FaFg [10]: 1.9%; FaFg [11]: 0.3%; bioavailability [12]: 2.8%; bioavailability [13]: 0.3%; FaFg [14]: 3.4%
N=C(N)Nc1ccc2c(c1)CCCCCc1c(cccc1C(=O)N[C@@H](CC(=O)O)C(=O)O)OC2=O	> 2 h	0.096 µM	0.0029 µM	1.15	degraded at 24 h, 10 ug/ml [15]: 0.6%; degraded at 24 h, 10 ug/ml [16]: 0.4%
N=C(N)Nc1ccc2c(c1)CCCCCCc1c(cccc1C(=O)N[C@@H](CC(=O)O)C(=O)O)OC2=O		2.5 µM	0.081 µM		
Cc1ccc(C(=O)N[C@@H](CC(=O)O)C(=O)O)cc1OC(=O)c1ccc(NC(=N)N)cc1		> 3.3 µM	0.71 µM		
N=C(N)Nc1ccc2c(c1)OCCCc1c(cccc1C(=O)N[C@@H](CC(=O)O)C(=O)O)OC2=O	0.27 h	0.0087 µM	0.00069 µM		
Cc1c(OC(=O)c2ccc(NC(=N)N)cc2)cccc1C(=O)N[C@@H](CC(=O)O)C(=O)O		0.069 µM	0.0044 µM		
N=C(N)Nc1ccc2c(c1)CCCc1c(cccc1C(=O)N[C@@H](CC(=O)O)C(=O)O)OC2=O		0.43 µM	0.022 µM		
N=C(N)Nc1ccc2c(c1)CCCCc1c(cccc1C(=O)N[C@@H](CC(=O)O)C(=O)O)OC2=O	> 2 h	0.093 µM	0.0032 µM	1.13	degraded at 24 h, 10 ug/ml [15]: 3.4%; degraded at 24 h, 10 ug/ml [16]: 1.2%
